Measurements from ChEMBL document CHEMBL1129930, “Analogues of methotrexate in rheumatoid arthritis. 2. Effects of 5-deazaaminopterin, 5,10-dideazaaminopterin, and analogues on type II collagen-induced arthritis in mice” (J Med Chem, 1997).

Tests used:
[1] = Concentration required to inhibit the growth of chang liver cells.; assay type: functional; settings: Homo sapiens
[2] = system: L1210; assay: Concentration required to inhibit the growth of L1210 cells.; assay type: functional, cell-based; settings: Mus musculus
[3] = system: Mus musculus; assay: Incidence of disease (mouse type II collagen) was scored as the percentage of animals within each experimental group that exhibited joint or limb inflammation on day 37 at intraperitoneal dose of 12 mg/kg; assay type: functional
[4] = system: Mus musculus; assay: Incidence of disease (mouse type II collagen) was scored as the percentage of animals within each experimental group that exhibited joint or limb inflammation on day 37 at intraperitoneal dose of 18 mg/kg; assay type: functional
[5] = system: Mus musculus; assay: Incidence of disease (mouse type II collagen) was scored as the percentage of animals within each experimental group that exhibited joint or limb inflammation on day 23 at intraperitoneal dose of 12 mg/kg; assay type: functional
[6] = system: Mus musculus; assay: Incidence of disease (mouse type II collagen) was scored as the percentage of animals within each experimental group that exhibited joint or limb inflammation on day 23 at intraperitoneal dose of 18 mg/kg; assay type: functional
[7] = system: Mus musculus; assay: Incidence of disease (mouse type II collagen) was scored as the percentage of animals within each experimental group that exhibited joint or limb inflammation on day 23 at intraperitoneal dose of 6 mg/kg; assay type: functional
[8] = system: Mus musculus; assay: Incidence of disease (mouse type II collagen) was scored as the percentage of animals within each experimental group that exhibited joint or limb inflammation on day 44 at intraperitoneal dose of 12 mg/kg; assay type: functional
[9] = system: Mus musculus; assay: Incidence of disease (mouse type II collagen) was scored as the percentage of animals within each experimental group that exhibited joint or limb inflammation on day 44 at intraperitoneal dose of 18 mg/kg; assay type: functional
[10] = system: Mus musculus; assay: Incidence of disease (mouse type II collagen) was scored as the percentage of animals within each experimental group that exhibited joint or limb inflammation on day 44 at intraperitoneal dose of 6 mg/kg; assay type: functional
[11] = system: Mus musculus; assay: Incidence of disease (mouse type II collagen) was scored as the percentage of animals within each experimental group that exhibited joint or limb inflammation on day 30 at intraperitoneal dose of 12 mg/kg; assay type: functional
[12] = system: Mus musculus; assay: Incidence of disease (mouse type II collagen) was scored as the percentage of animals within each experimental group that exhibited joint or limb inflammation on day 30 at intraperitoneal dose of 18 mg/kg; assay type: functional
[13] = system: Mus musculus; assay: Incidence of disease (mouse type II collagen) was scored as the percentage of animals within each experimental group that exhibited joint or limb inflammation on day 30 at intraperitoneal dose of 6 mg/kg; assay type: functional
[14] = system: Mus musculus; assay: Incidence of disease (mouse type II collagen) was scored as the percentage of animals within each experimental group that exhibited joint or limb inflammation on day 37 at intraperitoneal dose of 6 mg/kg; assay type: functional
[15] = system: Mus musculus; assay: Tested for antiinflammatory activity on mouse type II collagen arthritis as Paw swelling of all animals in each group on day 30 at intraperitoneal dose of 12 mg/kg; assay type: functional
[16] = system: Mus musculus; assay: Tested for antiinflammatory activity on mouse type II collagen arthritis as Paw swelling of all animals in each group on day 30 at intraperitoneal dose of 18 mg/kg; assay type: functional
[17] = system: Mus musculus; assay: Tested for antiinflammatory activity on mouse type II collagen arthritis as Paw swelling of all animals in each group on day 30 at intraperitoneal dose of 6 mg/kg; assay type: functional
[18] = system: Mus musculus; assay: Tested for antiinflammatory activity on mouse type II collagen arthritis as Paw swelling of all animals in each group on day 23 at intraperitoneal dose of 12 mg/kg; assay type: functional
[19] = system: Mus musculus; assay: Tested for antiinflammatory activity on mouse type II collagen arthritis as Paw swelling of all animals in each group on day 23 at intraperitoneal dose of 18 mg/kg; assay type: functional
[20] = system: Mus musculus; assay: Tested for antiinflammatory activity on mouse type II collagen arthritis as Paw swelling of all animals in each group on day 23 at intraperitoneal dose of 6 mg/kg; assay type: functional
[21] = system: Mus musculus; assay: Tested for antiinflammatory activity on mouse type II collagen arthritis as Paw swelling of all animals in each group on day 44 at intraperitoneal dose of 12 mg/kg; assay type: functional
[22] = system: Mus musculus; assay: Tested for antiinflammatory activity on mouse type II collagen arthritis as Paw swelling of all animals in each group on day 44 at intraperitoneal dose of 18 mg/kg; assay type: functional
[23] = system: Mus musculus; assay: Tested for antiinflammatory activity on mouse type II collagen arthritis as Paw swelling of all animals in each group on day 37 at intraperitoneal dose of 18 mg/kg; assay type: functional
[24] = system: Mus musculus; assay: Tested for antiinflammatory activity on mouse type II collagen arthritis as Paw swelling of all animals in each group on day 37 at intraperitoneal dose of 6 mg/kg; assay type: functional
[25] = system: Mus musculus; assay: Tested for antiinflammatory activity on mouse type II collagen arthritis as Paw swelling of all animals in each group on day 37 at intraperitoneal dose of 12 mg/kg; assay type: functional
[26] = system: Mus musculus; assay: Tested for antiinflammatory activity on mouse type II collagen arthritis as Paw swelling of all animals in each group on day 44 at intraperitoneal dose of 6 mg/kg; assay type: functional
[27] = system: Mus musculus; assay: Incidence of disease (mouse type II collagen) was scored as the percentage of animals within each experimental group that exhibited joint or limb inflammation on day 37 at intraperitoneal dose of 0.50 mg/kg (deaths observed at 1.5 mg/kg); assay type: functional
[28] = system: Mus musculus; assay: Incidence of disease (mouse type II collagen) was scored as the percentage of animals within each experimental group that exhibited joint or limb inflammation on day 37 at intraperitoneal dose of 1 mg/kg (deaths observed at 1.5 mg/kg); assay type: functional
[29] = system: Mus musculus; assay: Incidence of disease (mouse type II collagen) was scored as the percentage of animals within each experimental group that exhibited joint or limb inflammation on day 23 at intraperitoneal dose of 0.25 mg/kg (deaths observed at 1.5 mg/kg); assay type: functional
[30] = system: Mus musculus; assay: Incidence of disease (mouse type II collagen) was scored as the percentage of animals within each experimental group that exhibited joint or limb inflammation on day 23 at intraperitoneal dose of 0.50 mg/kg (deaths observed at 1.5 mg/kg); assay type: functional
[31] = system: Mus musculus; assay: Incidence of disease (mouse type II collagen) was scored as the percentage of animals within each experimental group that exhibited joint or limb inflammation on day 23 at intraperitoneal dose of 1 mg/kg (deaths observed at 1.5 mg/kg); assay type: functional
[32] = system: Mus musculus; assay: Incidence of disease (mouse type II collagen) was scored as the percentage of animals within each experimental group that exhibited joint or limb inflammation on day 37 at intraperitoneal dose of 0.25 mg/kg (deaths observed at 1.5 mg/kg); assay type: functional
[33] = system: Mus musculus; assay: Incidence of disease (mouse type II collagen) was scored as the percentage of animals within each experimental group that exhibited joint or limb inflammation on day 44 at intraperitoneal dose of 0.25 mg/kg (deaths observed at 1.5 mg/kg); assay type: functional
[34] = system: Mus musculus; assay: Incidence of disease (mouse type II collagen) was scored as the percentage of animals within each experimental group that exhibited joint or limb inflammation on day 44 at intraperitoneal dose of 0.50 mg/kg (deaths observed at 1.5 mg/kg); assay type: functional
[35] = system: Mus musculus; assay: Incidence of disease (mouse type II collagen) was scored as the percentage of animals within each experimental group that exhibited joint or limb inflammation on day 44 at intraperitoneal dose of 1 mg/kg (deaths observed at 1.5 mg/kg); assay type: functional
[36] = system: Mus musculus; assay: Incidence of disease (mouse type II collagen) was scored as the percentage of animals within each experimental group that exhibited joint or limb inflammation on day 30 at intraperitoneal dose of 0.25 mg/kg (deaths observed at 1.5 mg/kg); assay type: functional
[37] = system: Mus musculus; assay: Incidence of disease (mouse type II collagen) was scored as the percentage of animals within each experimental group that exhibited joint or limb inflammation on day 30 at intraperitoneal dose of 0.50 mg/kg (deaths observed at 1.5 mg/kg); assay type: functional
[38] = system: Mus musculus; assay: Incidence of disease (mouse type II collagen) was scored as the percentage of animals within each experimental group that exhibited joint or limb inflammation on day 30 at intraperitoneal dose of 1 mg/kg (deaths observed at 1.5 mg/kg); assay type: functional
[39] = system: Mus musculus; assay: Tested for antiinflammatory activity on mouse type II collagen arthritis as Paw swelling of all animals in each group on day 23 at intraperitoneal dose of 0.25 mg/kg; assay type: functional
[40] = system: Mus musculus; assay: Tested for antiinflammatory activity on mouse type II collagen arthritis as Paw swelling of all animals in each group on day 23 at intraperitoneal dose of 0.50 mg/kg; assay type: functional; settings: dose 0.5 mg/kg
[41] = system: Mus musculus; assay: Tested for antiinflammatory activity on mouse type II collagen arthritis as Paw swelling of all animals in each group on day 30 at intraperitoneal dose of 0.25 mg/kg; assay type: functional
[42] = system: Mus musculus; assay: Tested for antiinflammatory activity on mouse type II collagen arthritis as Paw swelling of all animals in each group on day 44 at intraperitoneal dose of 0.50 mg/kg; assay type: functional; settings: dose 0.5 mg/kg
[43] = system: Mus musculus; assay: Tested for antiinflammatory activity on mouse type II collagen arthritis as Paw swelling of all animals in each group on day 44 at intraperitoneal dose of 1 mg/kg; assay type: functional
[44] = system: Mus musculus; assay: Tested for antiinflammatory activity on mouse type II collagen arthritis as Paw swelling of all animals in each group on day 44 at intraperitoneal dose of 0.25 mg/kg; assay type: functional
[45] = system: Mus musculus; assay: Tested for antiinflammatory activity on mouse type II collagen arthritis as Paw swelling of all animals in each group on day 30 at intraperitoneal dose of 0.50 mg/kg; assay type: functional; settings: dose 0.5 mg/kg
[46] = system: Mus musculus; assay: Tested for antiinflammatory activity on mouse type II collagen arthritis as Paw swelling of all animals in each group on day 30 at intraperitoneal dose of 1 mg/kg; assay type: functional
[47] = system: Mus musculus; assay: Tested for antiinflammatory activity on mouse type II collagen arthritis as Paw swelling of all animals in each group on day 37 at intraperitoneal dose of 0.25 mg/kg; assay type: functional
[48] = system: Mus musculus; assay: Tested for antiinflammatory activity on mouse type II collagen arthritis as Paw swelling of all animals in each group on day 37 at intraperitoneal dose of 0.50 mg/kg; assay type: functional; settings: dose 0.5 mg/kg
[49] = system: Mus musculus; assay: Tested for antiinflammatory activity on mouse type II collagen arthritis as Paw swelling of all animals in each group on day 37 at intraperitoneal dose of 1 mg/kg; assay type: functional

Nc1nc(N)c2cc(CCc3ccc(C(=O)NC(CCC(=O)O)C(=O)O)cc3)cnc2n1 (stereo unspecified)
IC50 [1]: 37 nM | IC50 [2]: 27 nM | Animals [3]: 12% | Animals [4]: 0% | Animals [5]: 0% | Animals [6]: 12% | Animals [7]: 12% | Animals [8]: 25% | Animals [9]: 0% | Animals [10]: 38% | Animals [11]: 12% | Animals [12]: 0% | Animals [13]: 25% | Animals [14]: 25% | Paw swelling [15]: 2.24 mm | Paw swelling [16]: 2.16 mm | Paw swelling [17]: 2.28 mm | Paw swelling [18]: 2.12 mm | Paw swelling [19]: 2.15 mm | Paw swelling [20]: 2.17 mm | Paw swelling [21]: 2.28 mm | Paw swelling [22]: 2.2 mm | Paw swelling [23]: 2.15 mm | Paw swelling [24]: 2.26 mm | Paw swelling [25]: 2.24 mm | Paw swelling [26]: 2.29 mm

CCc1c(CNc2ccc(C(=O)NC(CCC(=O)O)C(=O)O)cc2)cnc2nc(N)nc(N)c12 (stereo unspecified)
IC50 [1]: 126 nM | IC50 [2]: 1.9 nM | Animals [27]: 86% | Animals [28]: 62% | Animals [29]: 38% | Animals [30]: 43% | Animals [31]: 12% | Animals [32]: 50% | Animals [33]: 62% | Animals [34]: 71% | Animals [35]: 62% | Animals [36]: 0% | Animals [37]: 57% | Animals [38]: 25% | Paw swelling [39]: 2.25 mm | Paw swelling [40]: 2.31 mm | Paw swelling [41]: 2.22 mm | Paw swelling [42]: 2.43 mm | Paw swelling [43]: 2.29 mm | Paw swelling [44]: 2.33 mm | Paw swelling [45]: 2.38 mm | Paw swelling [46]: 2.19 mm | Paw swelling [47]: 2.34 mm | Paw swelling [48]: 2.42 mm | Paw swelling [49]: 2.32 mm
